US10329294B2, “Pyrazolopyrimidine inhibitors of IRAK4 activity” (MERCK SHARP & DOHME CORP., priority 2015, dated 2019)
pIC50: −log10 of the molar value. Counter-ions that a name gives are not always drawn.

Biological target: IRAK4 (Homo sapiens (Human), UniProt Q9NWZ3)
Assay: IRAK4 Kinase Assay
Type: biochemical
Conditions: IMAP fluorescence polarization, 0.5 nM GST tagged IRAK4, 100 μM ATP, 30 minutes at 25° C.; read-out: IRAK4 IC50

IRAK4, sequence (Q9NWZ3 whole entry): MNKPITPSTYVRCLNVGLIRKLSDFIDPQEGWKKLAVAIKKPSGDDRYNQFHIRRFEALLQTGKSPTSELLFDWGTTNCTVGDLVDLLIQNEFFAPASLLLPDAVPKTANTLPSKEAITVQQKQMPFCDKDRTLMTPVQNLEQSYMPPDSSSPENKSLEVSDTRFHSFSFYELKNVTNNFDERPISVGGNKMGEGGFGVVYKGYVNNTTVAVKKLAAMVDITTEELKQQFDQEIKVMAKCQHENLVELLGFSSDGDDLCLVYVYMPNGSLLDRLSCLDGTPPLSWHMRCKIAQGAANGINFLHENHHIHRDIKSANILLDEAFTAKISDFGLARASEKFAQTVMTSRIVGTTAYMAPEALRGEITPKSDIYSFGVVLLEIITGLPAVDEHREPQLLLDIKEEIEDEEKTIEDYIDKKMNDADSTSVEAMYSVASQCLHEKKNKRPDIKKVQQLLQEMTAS

Compound | pIC50
CC(C)(C)n1cc(NC(=O)c2cnn3ccc(N[C@@H]4CCCC[C@@H]4N)nc23)c(C(F)(F)F)n1 [Example 294, 5-{[(1R,2S)-2-aminocyclohexyl]amino}-N-[1-tert-butyl-3-(trifluoromethyl)-1H-pyrazol-4-yl]pyrazolo[1,5-a]pyrimidine-3-carboxamide trifluoroacetate] | 9.00
N[C@H]1CCCC[C@H]1Nc1ccn2ncc(C(=O)Nc3cn(CC(F)(F)F)nc3C(F)(F)F)c2n1 [Example 295, 5-{[(1R,2S)-2-aminocyclohexyl]amino}-N-[1-(2,2,2-trifluoroethyl)-3-(trifluoromethyl)-1H-pyrazol-4-yl]pyrazolo[1,5-a]pyrimidine-3-carboxamide trifluoroacetate] | 9.00
N[C@H]1CCCC[C@H]1Nc1ccn2ncc(C(=O)Nc3cn(C(F)F)nc3C(F)(F)F)c2n1 [Example 296, 5-{[(1R,2S)-2-aminocyclohexyl]amino}-N-[1-(difluoromethyl)-3-(trifluoromethyl)-1H-pyrazol-4-yl]pyrazolo[1,5-a]pyrimidine-3-carboxamide trifluoroacetate] | 8.70
CC(C)n1cc(NC(=O)c2cnn3ccc(N4CCNCC4)nc23)c(C(F)(F)F)n1 [Example 298, N-[1-(1-methylethyl)-3-(trifluoromethyl)-1H-pyrazol-4-yl]-5-piperazin-1-ylpyrazolo[1,5-a]pyrimidine-3-carboxamide trifluoroacetate] | 7.77
O=C(Nc1cn(C(F)F)nc1C(F)(F)F)c1cnn2ccc(N3CCNCC3)nc12 [Example 300, N-[1-(difluoromethyl)-3-(trifluoromethyl)-1H-pyrazol-4-yl]-5-piperazin-1-ylpyrazolo[1,5-a]pyrimidine-3-carboxamide trifluoroacetate] | 7.26
N[C@H]1CCCC[C@H]1Nc1ccn2ncc(C(=O)Nc3c[nH]nc3C(F)(F)F)c2n1 [Example 301, 5-{[(1R,2S)-2-aminocyclohexyl]amino}-N-[3-(trifluoromethyl)-1H-pyrazol-4-yl]pyrazolo[1,5-a]pyrimidine-3-carboxamide trifluoroacetate] | 9.10

More lines, in order of rising pIC50, values ahead:

pIC50 | Compound
7.09 | O=C(Nc1cn(CC(F)(F)F)nc1C(F)(F)F)c1cnn2ccc(N3CCNCC3)nc12 [Example 299, 5-piperazin-1-yl-N-[1-(2,2,2-trifluoroethyl)-3-(trifluoromethyl)-1H-pyrazol-4-yl]pyrazolo[1,5-a]pyrimidine-3-carboxamide trifluoroacetate]
9.10 | N[C@H]1CCCC[C@H]1Nc1ccn2ncc(C(=O)Nc3cn(CC(F)F)nc3C(F)(F)F)c2n1 [Example 292, 5-{[(1R,2S)-2-aminocyclohexyl]amino}-N-[1-(2,2-difluoroethyl)-3-(trifluoromethyl)-1H-pyrazol-4-yl]pyrazolo[1,5-a]pyrimidine-3-carboxamide trifluoroacetate]
9.40 | N[C@H]1CCCC[C@H]1Nc1ccn2ncc(C(=O)Nc3cn(C4CC4)nc3C(F)(F)F)c2n1 [Example 293, 5-{[(1R,2S)-2-aminocyclohexyl]amino}-N-[1-cyclopropyl-3-(trifluoromethyl)-1H-pyrazol-4-yl]pyrazolo[1,5-a]pyrimidine-3-carboxamide trifluoroacetate]
